We go through 24 molecules from US20260055079A1, “PHTHALAZINONE COMPOUNDS AS PARP7 INHIBITORS” (AZKARRA THERAPEUTICS, INC., priority 2022, published 2026).

Assay [1] deals with NCI-H1373 (human lung adenocarcinoma) cells. The assay is described as follows: Cell proliferation assay (CellTiter-Glo), NCI-H1373. The following applies: Homo sapiens, NCI-H1373, 144 h, read-out: NCI-H1373 GI50. The class given is cell-based. (In general: ATP-based viability assays read luminescence as a measure of living cells.)
Assay [2] concerns HARA (human lung squamous cell carcinoma) cells. The assay can be described thus: Cell proliferation assay (CellTiter-Glo), HARA. The class given is cell-based. Conditions: Homo sapiens, 144 h; 6 days, CellTiter-Glo; read-out: HARA GI50.
A further assay addresses His-GST-PARP7 (Homo sapiens (Human), UniProt Q7Z3E1). The assay can be described thus: PARP7 biochemical assay. Conditions: read-out: PARP7 IC50.

Read-outs that look alike come from different tables or passages of the source. Bounds are passed on as bounds.

His-GST-PARP7, sequence (Q7Z3E1 whole entry): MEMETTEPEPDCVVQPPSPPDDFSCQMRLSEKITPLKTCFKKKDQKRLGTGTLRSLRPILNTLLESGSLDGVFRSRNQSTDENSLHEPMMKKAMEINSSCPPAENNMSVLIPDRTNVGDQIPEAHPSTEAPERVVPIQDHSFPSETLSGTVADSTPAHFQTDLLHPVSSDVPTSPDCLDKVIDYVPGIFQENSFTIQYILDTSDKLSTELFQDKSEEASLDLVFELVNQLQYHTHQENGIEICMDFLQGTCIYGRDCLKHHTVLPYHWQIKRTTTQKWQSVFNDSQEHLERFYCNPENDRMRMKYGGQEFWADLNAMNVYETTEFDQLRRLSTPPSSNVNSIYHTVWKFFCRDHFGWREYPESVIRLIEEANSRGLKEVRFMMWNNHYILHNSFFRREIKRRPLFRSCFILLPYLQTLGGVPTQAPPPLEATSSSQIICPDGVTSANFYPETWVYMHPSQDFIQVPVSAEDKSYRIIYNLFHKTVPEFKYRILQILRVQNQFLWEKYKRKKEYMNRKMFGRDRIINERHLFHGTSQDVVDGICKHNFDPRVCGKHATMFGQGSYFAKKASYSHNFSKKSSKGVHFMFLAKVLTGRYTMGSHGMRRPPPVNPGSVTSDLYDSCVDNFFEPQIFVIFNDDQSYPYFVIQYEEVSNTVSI

In the case of `Cc1cc(N2CCN(C(=O)c3cc(Cc4n[nH]c(=O)c5ccc(OC6CCC6)cc45)ccc3F)CC2)ncc1C#N` [Example 134, 6-(4-(5-((7-cyclobutoxy-4-oxo-3,4-dihydrophthalazin-1-yl)methyl)-2-fluorobenzoyl)piperazin-1-yl)-4-methylnicotinonitrile], the GI50 (as a rule, the concentration at which growth is held to half of that of the control) was less than 100 nM in assay [1] (6 days, CellTiter-Glo) and 100 to 1000 nM in assay [2]. On His-GST-PARP7, the IC50 (usually the concentration that inhibits the measured activity by half) is less than 50 nM.
In the same order, the values of `COc1cc(C#N)cnc1N1CCN(C(=O)c2cc(Cc3n[nH]c(=O)c4ccc(OC5CCC5)cc34)ccc2F)CC1` [Example 131, 6-(4-(5-((7-cyclobutoxy-4-oxo-3,4-dihydrophthalazin-1-yl)methyl)-2-fluorobenzoyl)piperazin-1-yl)-5-methoxynicotinonitrile] are 100 to 1000 nM, 1000 to 5000 nM and less than 50 nM.
Take `CC#Cc1ccc2c(=O)[nH]nc(Cc3ccc(F)c(C(=O)N4CCN(c5ccc(C#N)cn5)CC(F)(F)C4)c3)c2c1` [Example 80, 6-(6,6-Difluoro-4-(2-fluoro-5-((4-oxo-7-(prop-1-ynyl)-3,4-dihydrophthalazin-1-yl)methyl)benzoyl)-1,4-diazepan-1-yl)nicotinonitrile]: the GI50 lay in the range of 100 to 1000 nM in assay [1] (6 days, CellTiter-Glo) and 1000 to 5000 nM in assay [2]. Also, the IC50 on His-GST-PARP7 was less than 50 nM.
Consider `N#Cc1ccc(N2CCN(c3noc4c(Cc5n[nH]c(=O)c6ccc(OC7CCC7)cc56)cccc34)CC2)nc1` [Example 208, 6-(4-(7-((7-Cyclobutoxy-4-oxo-3,4-dihydrophthalazin-1-yl)methyl)benzo[d]isoxazol-3-yl)piperazin-1-yl)nicotinonitrile], for which the concentration for 50% growth inhibition (GI50) was in the range of 1000 to 5000 nM in assay [1] (6 days, CellTiter-Glo) and 1000 to 5000 nM in assay [2]. Also, on His-GST-PARP7, the IC50 is 100 to 500 nM.
As for `O=C(c1cc(Cc2n[nH]c(=O)c3ccc(OC4CCC4)cc23)ccc1F)N1CCN(c2ncc(C3CC3)cn2)CC1` [Example 162, 6-cyclobutoxy-4-(3-(4-(5-cyclopropylpyrimidin-2-yl)piperazine-1-carbonyl)-4-fluorobenzyl)phthalazin-1(2H)-one], the 50% growth inhibitory concentration (GI50) is less than 100 nM in assay [1] (6 days, CellTiter-Glo) and 100 to 1000 nM in assay [2]. For the same molecule, on His-GST-PARP7, the IC50 was less than 50 nM.
The matching figures for `COc1nc(N2CCN(C(=O)c3cc(Cc4n[nH]c(=O)c5ccc(OC6CCC6)cc45)ccc3F)CC2)ccc1C#N` [Example 136, 6-(4-(5-((7-cyclobutoxy-4-oxo-3,4-dihydrophthalazin-1-yl)methyl)-2-fluorobenzoyl)piperazin-1-yl)-2-methoxynicotinonitrile]: 100 to 1000 nM, greater than 5000 nM and 50 to 100 nM.
Consider `O=C(c1cc(Cc2n[nH]c(=O)c3ccc(OC4CCC4)cc23)ccc1F)N1CCN(c2ccc(O)cn2)CC1` [Example 140, 6-cyclobutoxy-4-(4-fluoro-3-(4-(5-hydroxypyridin-2-yl)piperazine-1-carbonyl)benzyl)phthalazin-1(2H)-one], for which the GI50 in assay [1] (6 days, CellTiter-Glo) was in the range of 1000 to 5000 nM. Besides, on His-GST-PARP7, the IC50 is less than 50 nM.
Turning to `CC#Cc1ccc2c(=O)[nH]nc(Cc3ccc(F)c(C(=O)N4CCC(F)(c5ccc(C#N)cn5)CC4)c3)c2c1` [Example 67, 6-(4-Fluoro-1-(2-fluoro-5-((4-oxo-7-(prop-1-yn-1-yl)-3,4-dihydrophthalazin-1-yl)methyl)benzoyl)piperidin-4-yl)nicotinonitrile], the GI50 in assay [1] (6 days, CellTiter-Glo) lay within 1000 to 5000 nM. In addition, the IC50 on His-GST-PARP7 was in the range of 50 to 100 nM.
The matching figures for `C#CCN(C)c1ccc2c(=O)[nH]nc(Cc3ccc(F)c(C(=O)N4CCN(c5ccc(C#N)cn5)CC4)c3)c2c1` [Example 17, 6-(4-(2-Fluoro-5-((7-(methyl(prop-2-ynyl)amino)-4-oxo-3,4-dihydrophthalazin-1-yl)methyl)benzoyl)piperazin-1-yl)nicotinonitrile]: 1000 to 5000 nM and less than 50 nM.
Consider `COC1CN(c2ccc3c(=O)[nH]nc(Cc4ccc(F)c(C(=O)N5CCN(c6ccc(C#N)cn6)CC5)c4)c3c2)C1` [Example 11, 6-(4-(2-Fluoro-5-((7-(3-methoxyazetidin-1-yl)-4-oxo-3,4-dihydrophthalazin-1-yl)methyl)benzoyl)piperazin-1-yl)nicotinonitrile], for which, in assay [1], the GI50 fell in the range of 100 to 1000 nM. Also, on His-GST-PARP7, the IC50 was less than 50 nM.
Regarding `CC#CCOc1ccc2c(=O)[nH]nc(Cc3ccc(F)c(C(=O)N4CCN(c5ccc(C#N)cn5)CC4)c3)c2c1` [Example 19, 6-(4-(5-((7-(But-2-ynyloxy)-4-oxo-3,4-dihydrophthalazin-1-yl)methyl)-2-fluorobenzoyl)piperazin-1-yl)nicotinonitrile], the GI50 in assay [1] (6 days, CellTiter-Glo) lay in the range of 100 to 1000 nM. Besides, the IC50 at His-GST-PARP7 was less than 50 nM.
Take `N#Cc1ccc(N2CCN(C(=O)c3cc(Cc4n[nH]c(=O)c5ccc(OC(F)F)cc45)ccc3F)CC2)nc1` [Example 21, 6-(4-(5-((7-(Difluoromethoxy)-4-oxo-3,4-dihydrophthalazin-1-yl)methyl)-2-fluorobenzoyl)piperazin-1-yl)nicotinonitrile]: the GI50 in assay [1] was 100 to 1000 nM. Further, on His-GST-PARP7, the IC50 was less than 50 nM.
Consider `N#Cc1cnc(N2CCN(C(=O)c3cc(Cc4n[nH]c(=O)c5ccc(OC6CCC6)cc45)ccc3F)CC2)cc1C(F)(F)F` [Example 132, 6-(4-(5-((7-cyclobutoxy-4-oxo-3,4-dihydrophthalazin-1-yl)methyl)-2-fluorobenzoyl)piperazin-1-yl)-4-(trifluoromethyl)nicotinonitrile], for which the GI50 in assay [1] (6 days, CellTiter-Glo) was less than 100 nM; in assay [2] it was 1000 to 5000 nM.
In the case of `CC#Cc1ccc2c(=O)[nH]nc(Cc3ccc(F)c(C(=O)NCc4nnc(C(F)(F)F)o4)c3)c2c1` [Example 199, 2-Fluoro-5-((4-oxo-7-(prop-1-ynyl)-3,4-dihydrophthalazin-1-yl)methyl)-N-((5-(trifluoromethyl)-1,3,4-oxadiazol-2-yl)methyl)benzamide], the GI50 in assay [1] (6 days, CellTiter-Glo) is 1000 to 5000 nM. Also, the IC50 at His-GST-PARP7 was greater than 2000 nM.
Take `N#Cc1ccc(N2CCN(C(=O)c3cc(Cc4n[nH]c(=O)c5ccc(OCC(F)(F)F)cc45)ccc3F)CC2)nc1` [Example 9, 6-(4-(2-Fluoro-5-((4-oxo-7-(2,2,2-trifluoroethoxy)-3,4-dihydrophthalazin-1-yl)methyl)benzoyl)piperazin-1-yl)nicotinonitrile]: the GI50 in assay [1] lay in the range of 100 to 1000 nM. Further, the IC50 at His-GST-PARP7 was less than 50 nM.
Turning to `N#Cc1ccc(N2CCN(C(=O)c3cc(Cc4n[nH]c(=O)c5ccc(NC6CCC6)cc45)ccc3F)CC2)nc1` [Example 29, 6-(4-(5-((7-(Cyclobutylamino)-4-oxo-3,4-dihydrophthalazin-1-yl)methyl)-2-fluorobenzoyl)piperazin-1-yl)nicotinonitrile], the GI50 in assay [1] (6 days, CellTiter-Glo) is 100 to 1000 nM. Besides, on His-GST-PARP7, the IC50 was less than 50 nM.
In the same order, the values of `CC#Cc1ccc2c(=O)[nH]nc(Cc3ccc(F)c(C(=O)N4C[C@H]5C[C@@H]4CN5c4ccc(C#N)cn4)c3)c2c1` [Example 66, 6-((1R,4R)-5-(2-Fluoro-5-((4-oxo-7-(prop-1-ynyl)-3,4-dihydrophthalazin-1-yl)methyl)benzoyl)-2,5-diazabicyclo[2.2.1]heptan-2-yl)nicotinonitrile] are 1000 to 5000 nM and less than 50 nM.
In the same order, the values of `C#CCNc1ccc2c(=O)[nH]nc(Cc3ccc(F)c(C(=O)N4CCN(c5ccc(C#N)cn5)CC4)c3)c2c1` [Example 15, 6-(4-(2-Fluoro-5-((4-oxo-7-(prop-2-ynylamino)-3,4-dihydrophthalazin-1-yl)methyl)benzoyl)piperazin-1-yl)nicotinonitrile] are 1000 to 5000 nM and less than 50 nM.
The matching figures for `N#Cc1ccc(N2CCN(C(=O)c3cccc(Cc4n[nH]c(=O)c5c(F)cccc45)c3)CC2)nc1` [Example 88, 6-(4-(3-((5-Fluoro-4-oxo-3,4-dihydrophthalazin-1-yl)methyl)benzoyl)piperazin-1-yl)nicotinonitrile]: 100 to 1000 nM and less than 50 nM.
As to `N#Cc1ccc(N2CCN(C(=O)c3cc(Cc4n[nH]c(=O)c5ccc(NCCC(F)(F)F)cc45)ccc3F)CC2)nc1` [Example 33, 6-(4-(2-Fluoro-5-((4-oxo-7-((3,3,3-trifluoropropyl)amino)-3,4-dihydrophthalazin-1-yl)methyl)benzoyl)piperazin-1-yl)nicotinonitrile], the GI50 in assay [1] (6 days, CellTiter-Glo) is 1000 to 5000 nM. Also, on His-GST-PARP7, the IC50 is less than 50 nM.
In the same order, the values of `O=C(c1cc(Cc2n[nH]c(=O)c3ccc(OC4CCC4)cc23)ccc1Cl)N1CCN(c2ncc(C(F)(F)F)cn2)CC1` [Example 169, 4-(4-chloro-3-(4-(5-(trifluoromethyl)pyrimidin-2-yl)piperazine-1-carbonyl)benzyl)-6-cyclobutoxyphthalazin-1(2H)-one] are less than 100 nM and less than 50 nM.
The matching figures for `O=C(c1cc(Cc2n[nH]c(=O)c3ccc(OC4CCC4)cc23)ccc1F)N1CCN(C(=O)C2CC2)CC(F)(F)C1` [Example 127, 6-Cyclobutoxy-4-(3-(4-(cyclopropanecarbonyl)-6,6-difluoro-1,4-diazepane-1-carbonyl)-4-fluorobenzyl)phthalazin-1(2H)-one]: 1000 to 5000 nM and less than 50 nM.
The matching figures for `N#Cc1ccc(N2CCN(C(=O)c3cc(Oc4n[nH]c(=O)c5ccccc45)ccc3F)CC2)nc1` [Example 190, 6-(4-(2-fluoro-5-((4-oxo-3,4-dihydrophthalazin-1-yl)oxy)benzoyl)piperazin-1-yl)nicotinonitrile]: 1000 to 5000 nM and 100 to 500 nM.
In the case of `O=C(c1cc(Cc2n[nH]c(=O)c3ccc(OC4CCC4)cc23)ccc1F)N1CCn2c(nnc2C2CC2)C1` [Example 146, 6-cyclobutoxy-4-(3-(3-cyclopropyl-5,6,7,8-tetrahydro-[1,2,4]triazolo[4,3-a]pyrazine-7-carbonyl)-4-fluorobenzyl)phthalazin-1(2H)-one], the 50% growth inhibitory concentration (GI50) in assay [1] (6 days, CellTiter-Glo) was greater than 5000 nM. Moreover, the IC50 on His-GST-PARP7 is less than 50 nM.
